Each structure is given as a SMILES string. pIC50: −log10 of the molar value.

In this experiment the target is SUV420H1 enzyme (Homo sapiens, UniProt Q4FZB7). In words: TR-FRET SAH SUV420H1 enzyme inhibition assay. The experiment is classed as biochemical. The settings on record: Histone Peptide H4(8-30)me1 and SAM, overnight at room temp, TR-FRET detection of SAH, read-out: TR-FRET SAH_SUV420H1 IC50. The protocol: Test compounds were dispensed by a Labcyte Echo in 384-well low volume assay plates with 3-fold serial dilutions from 50 μM to 0.00075 μM. 5 μL of SUV420H1 enzyme (Abbvie) at 90 nM was added to all wells except the no enzyme control wells, and incubated for 30 minutes at room temp before 5 μL of Histone Peptide H4(8-30)me1 (Anaspec) at 5 nM and SAM at 4 nM was added to all wells. The plates were incubated in a humidified chamber overnight at room temp and then 10 μL of the detection reagent that contained RIPA buffer (50 mM Tris-HCl, pH 8.0, 150 mM sodium chloride, 1.0% Igepal CA-630 (NP-40), 0.5% sodium deoxycholate and 0.1% sodium dodecyl sulfate) (Sigma) with 2 nM of Terbium chelate anti S-adenosyl-L-homocysteine (SAH) (Abbvie) antibody and Oregon Green labeled SAH at 4 nM was added. The plates were further incubated for 4 hours at room temperature. The plates were read in a Perkin Elmer Envision using a TR-FRET protocol with Excitation set at 335 nm and Emission at 520 and 495 nm. To generate dose response curves the data is normalized to percent inhibition by setting the average of the plus and minus enzyme control wells to 0% and 100% inhibition respectively. The IC50 values for the compounds are generated by fitting the normalized data with Accelrys Assay Explorer 3.3 to a sigmoidal curve model using […] regression, Y=(100*x^n)/(K^n+x^n), where Y is the measured response, x is the compound concentration, n is the Hill Slope and K is the IC50 and the lower and higher asymptotes are constrained to 0 and 100 respectively.
Sequence of SUV420H1 enzyme (Q4FZB7 whole entry): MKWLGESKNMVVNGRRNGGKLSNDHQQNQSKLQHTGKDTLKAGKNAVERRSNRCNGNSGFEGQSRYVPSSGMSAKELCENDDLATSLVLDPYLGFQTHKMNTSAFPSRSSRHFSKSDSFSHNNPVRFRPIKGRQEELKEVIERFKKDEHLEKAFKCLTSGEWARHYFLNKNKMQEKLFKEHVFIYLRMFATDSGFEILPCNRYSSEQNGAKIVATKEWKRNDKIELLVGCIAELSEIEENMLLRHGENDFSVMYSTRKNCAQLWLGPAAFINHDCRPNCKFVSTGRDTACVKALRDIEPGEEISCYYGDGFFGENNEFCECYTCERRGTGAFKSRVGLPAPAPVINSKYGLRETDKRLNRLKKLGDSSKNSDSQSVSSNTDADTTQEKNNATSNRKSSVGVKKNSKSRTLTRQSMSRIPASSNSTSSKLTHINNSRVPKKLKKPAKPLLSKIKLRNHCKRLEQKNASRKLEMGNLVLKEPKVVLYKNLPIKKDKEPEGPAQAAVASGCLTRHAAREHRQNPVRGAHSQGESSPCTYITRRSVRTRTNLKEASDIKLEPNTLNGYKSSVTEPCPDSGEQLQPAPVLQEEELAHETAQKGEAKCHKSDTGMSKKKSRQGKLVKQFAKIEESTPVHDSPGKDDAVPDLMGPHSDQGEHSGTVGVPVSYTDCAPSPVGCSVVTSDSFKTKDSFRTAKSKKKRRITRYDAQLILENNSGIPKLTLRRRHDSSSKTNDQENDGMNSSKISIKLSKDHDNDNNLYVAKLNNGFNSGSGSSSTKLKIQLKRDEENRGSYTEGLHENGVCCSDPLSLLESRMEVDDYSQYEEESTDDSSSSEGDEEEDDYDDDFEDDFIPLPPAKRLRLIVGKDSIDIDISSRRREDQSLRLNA
In general terms: In TR-FRET formats the signal depends on donor and acceptor labels being close together.
As for `CNCc1cc2cc(Cl)cc(Cn3cnc4c(N)ncnc43)c2[nH]1` [Example 89, 9-({5-chloro-2-[(methylamino)methyl]-1H-indol-7-yl}methyl)-9H-purin-6-amine], the pIC50 (in general, the IC50 on a negative log10 scale, so that one unit is a factor of ten) was 5.59.
With `Nc1ncnc2c1ncn2Cc1cccc2c(Br)c[nH]c12` [Example 1, 9-[(3-bromo-1H-indol-7-yl)methyl]-9H-purin-6-amine], the negative logarithm of the IC50 (pIC50) was below 4.30.
Consider `CC1CCCC(C(=O)NCc2cc3cc(Cl)cc(Cn4cnc5c(N)ncnc54)c3[nH]2)C1` (centres unmarked) [Example 131, N-({7-[(6-amino-9H-purin-9-yl)methyl]-5-chloro-1H-indol-2-yl}methyl)-3-methylcyclohexanecarboxamide], for which the negative-log IC50 (pIC50) was 5.49.
For the compound `NCc1cc2cc(-c3ccc(F)cc3)cc(Cn3cnc4c(N)ncnc43)c2[nH]1` [Example 26, 9-{[2-(aminomethyl)-5-(4-fluorophenyl)-1H-indol-7-yl]methyl}-9H-purin-6-amine], the negative logarithm of the IC50 (pIC50) is 6.32.
For `COc1ccc(-c2cc(Cn3cnc4c(N)ncnc43)c3[nH]c(CN)cc3c2)cc1` [Example 34, 9-{[2-(aminomethyl)-5-(4-methoxyphenyl)-1H-indol-7-yl]methyl}-9H-purin-6-amine], the pIC50 is 6.14.
For the compound `Nc1ncnc2c1ncn2Cc1cc(Cl)cc2cc(C(N)c3ccccc3)[nH]c12` (centres unmarked) [Example 194, 9-({2-[amino(phenyl)methyl]-5-chloro-1H-indol-7-yl}methyl)-9H-purin-6-amine], the pIC50 is 5.71.
To `Nc1ncnc2c1ncn2Cc1cc(Cl)cc2cc(CNC(=O)Cc3ccccc3Cl)[nH]c12` [Example 253, N-({7-[(6-amino-9H-purin-9-yl)methyl]-5-chloro-1H-indol-2-yl}methyl)-2-(2-chlorophenyl)acetamide] belongs 4.44.
As for `Nc1ncnc2c1ncn2Cc1cc(Cl)cc2cc(CNC(=O)CCN3CCCCC3)[nH]c12` [Example 135, N-({7-[(6-amino-9H-purin-9-yl)methyl]-5-chloro-1H-indol-2-yl}methyl)-3-(piperidin-1-yl)propanamide], the negative logarithm of the IC50 (pIC50) was 5.34.
Turning to `Nc1ncnc2c1ncn2Cc1cc(Cl)cc2cc(CNC(=O)Cc3cccnc3)[nH]c12` [Example 231, N-({7-[(6-amino-9H-purin-9-yl)methyl]-5-chloro-1H-indol-2-yl}methyl)-2-(pyridin-3-yl)acetamide], the pIC50 is 5.61.
In the case of `Cc1scnc1C(=O)NCc1cc2cc(Cl)cc(Cn3cnc4c(N)ncnc43)c2[nH]1` [Example 147, N-({7-[(6-amino-9H-purin-9-yl)methyl]-5-chloro-1H-indol-2-yl}methyl)-5-methyl-1,3-thiazole-4-carboxamide], the pIC50 was 5.24.
To `CC(C)c1oncc1C(=O)NCc1cc2cc(Cl)cc(Cn3cnc4c(N)ncnc43)c2[nH]1` [Example 187, N-({7-[(6-amino-9H-purin-9-yl)methyl]-5-chloro-1H-indol-2-yl}methyl)-5-(propan-2-yl)-1,2-oxazole-4-carboxamide] belongs 5.73.
For the compound `N#Cc1cccc(-c2cc(Cn3cnc4c(N)ncnc43)c3[nH]c(CN)cc3c2)c1` [Example 39, 3-{2-(aminomethyl)-7-[(6-amino-9H-purin-9-yl)methyl]-1H-indol-5-yl}benzonitrile], the pIC50 was 6.46.
As for `Cc1noc2ncc(C(=O)NCc3cc4cc(Cl)cc(Cn5cnc6c(N)ncnc65)c4[nH]3)cc12` [Example 351, N-({7-[(6-amino-9H-purin-9-yl)methyl]-5-chloro-1H-indol-2-yl}methyl)-3-methyl[1,2]oxazolo[5,4-b]pyridine-5-carboxamide], the pIC50 was 6.41.
Consider `Nc1ncnc2c1ncn2Cc1cc(Cl)cc2cc(CNC(=O)C34CC5CC(CC(C5)C3)C4)[nH]c12` [Example 136, N-({7-[(6-amino-9H-purin-9-yl)methyl]-5-chloro-1H-indol-2-yl}methyl)tricyclo[3.3.1.1^3,7]decane-1-carboxamide], for which the pIC50 is 4.98.
Then `CCc1onc(C)c1C(=O)NCc1cc2cc(Cl)cc(Cn3cnc4c(N)ncnc43)c2[nH]1` [Example 185, N-({7-[(6-amino-9H-purin-9-yl)methyl]-5-chloro-1H-indol-2-yl}methyl)-5-ethyl-3-methyl-1,2-oxazole-4-carboxamide], with 6.16; and `COc1cccc(-c2cc(Cn3cnc4c(N)ncnc43)c3[nH]c(CN)cc3c2)c1` [Example 35, 9-{[2-(aminomethyl)-5-(3-methoxyphenyl)-1H-indol-7-yl]methyl}-9H-purin-6-amine], with 5.96.
Then `Cc1cc(C(=O)NCc2cc3cc(C4=CCC(F)(F)CC4)cc(Cn4cnc5c(N)ncnc54)c3[nH]2)c(C)nn1` [Example 236, N-({7-[(6-amino-9H-purin-9-yl)methyl]-5-(4,4-difluorocyclohex-1-en-1-yl)-1H-indol-2-yl}methyl)-3,6-dimethylpyridazine-4-carboxamide], with 7.47; and `Nc1ncnc2c1ncn2Cc1cc(Cl)cc2cc(CNC(=O)CCc3ccccc3)[nH]c12` [Example 291, N-({7-[(6-amino-9H-purin-9-yl)methyl]-5-chloro-1H-indol-2-yl}methyl)-3-phenylpropanamide], with 4.89.
Regarding `CNc1ccccc1C(=O)NCc1cc2cc(Cl)cc(Cn3cnc4c(N)ncnc43)c2[nH]1` [Example 275, N-({7-[(6-amino-9H-purin-9-yl)methyl]-5-chloro-1H-indol-2-yl}methyl)-2-(methylamino)benzamide], the pIC50 was 4.88.
With `CC1CCC(C(=O)NCc2cc3cc(Cl)cc(Cn4cnc5c(N)ncnc54)c3[nH]2)CC1` (centres unmarked) [Example 130, N-({7-[(6-amino-9H-purin-9-yl)methyl]-5-chloro-1H-indol-2-yl}methyl)-4-methylcyclohexanecarboxamide], the pIC50 is 5.62.
Take `N#Cc1ccc(C(=O)NCc2cc3cc(Cl)cc(Cn4cnc5c(N)ncnc54)c3[nH]2)cc1` [Example 272, N-({7-[(6-amino-9H-purin-9-yl)methyl]-5-chloro-1H-indol-2-yl}methyl)-4-cyanobenzamide]: the pIC50 was 6.42.
As for `Nc1ncnc2c1ncn2Cc1cc(Cl)cc2cc(CNC(=O)c3ccc4scnc4c3)[nH]c12` [Example 336, N-({7-[(6-amino-9H-purin-9-yl)methyl]-5-chloro-1H-indol-2-yl}methyl)-1,3-benzothiazole-5-carboxamide], the pIC50 was 6.37.
Then `Nc1ncnc2c1ncn2Cc1cc(Cl)cc2cc(CNC(=O)C3CCCCC3)[nH]c12` [Example 128, N-({7-[(6-amino-9H-purin-9-yl)methyl]-5-chloro-1H-indol-2-yl}methyl)cyclohexanecarboxamide], with 5.48; and `COc1ccc(-c2ccc(Cn3cnc4c(N)ncnc43)c3[nH]c(CN)cc23)cc1` [Example 78, 9-{[2-(aminomethyl)-4-(4-methoxyphenyl)-1H-indol-7-yl]methyl}-9H-purin-6-amine], with 6.20.
To `Nc1ncnc2c1ncn2Cc1cc(Cl)cc2cc(CNC(=O)CC3CC3)[nH]c12` [Example 110, N-({7-[(6-amino-9H-purin-9-yl)methyl]-5-chloro-1H-indol-2-yl}methyl)-2-cyclopropylacetamide] belongs 4.97; to `NCc1cc2cc(C3=CCNCC3)cc(Cn3cnc4c(N)ncnc43)c2[nH]1` [Example 13, 9-{[2-(aminomethyl)-5-(1,2,3,6-tetrahydropyridin-4-yl)-1H-indol-7-yl]methyl}-9H-purin-6-amine], 6.87.

Source of the values: US9932340B2, “Substituted indoles” (AbbVie Inc., priority 2014, dated 2018).
